We go through one molecule from patent US7435850B2, “Naphthalene compounds” (Les Laboratoires Servier, priority 2006, dated 2008).

The target of experiment [1] is T1, MT2 receptor (Homo sapiens, UniProt P49286).
T1 sequence (P49286 1-362): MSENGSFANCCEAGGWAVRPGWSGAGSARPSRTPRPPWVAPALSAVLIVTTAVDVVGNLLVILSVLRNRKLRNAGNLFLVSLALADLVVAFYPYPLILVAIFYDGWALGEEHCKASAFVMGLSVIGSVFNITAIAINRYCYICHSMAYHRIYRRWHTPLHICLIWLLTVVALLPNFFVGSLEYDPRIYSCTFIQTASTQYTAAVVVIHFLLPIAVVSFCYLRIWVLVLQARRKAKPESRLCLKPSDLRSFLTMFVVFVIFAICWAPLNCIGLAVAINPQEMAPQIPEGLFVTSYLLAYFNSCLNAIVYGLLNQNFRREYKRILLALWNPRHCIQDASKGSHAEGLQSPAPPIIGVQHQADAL
The experiment can be described thus: Melatonin MT2 receptor binding study. How it is done: (§1) The MT1 or MT2 receptor binding experiments are carried out using 2-[^125 I]-iodomelatonin as reference radioligand. The radioactivity retained is determined using a liquid scintillation counter.
(§2) Competitive binding experiments are then carried out in triplicate using the various test compounds. A range of different concentrations is tested for each compound. The results enable the binding affinities of the compounds tested (Ki) to be determined.

The target in experiment [2] is MT1 receptor (Homo sapiens, UniProt P48039). The experiment in a line: Melatonin MT1 receptor binding study. How it is done: as §1, §2

For orientation: Ki means the dissociation constant of the complex between target and ligand, obtained from inhibition or displacement. Low readings indicate tighter binding, high ones weaker binding.

Chain of MT1 receptor (P48039 whole entry): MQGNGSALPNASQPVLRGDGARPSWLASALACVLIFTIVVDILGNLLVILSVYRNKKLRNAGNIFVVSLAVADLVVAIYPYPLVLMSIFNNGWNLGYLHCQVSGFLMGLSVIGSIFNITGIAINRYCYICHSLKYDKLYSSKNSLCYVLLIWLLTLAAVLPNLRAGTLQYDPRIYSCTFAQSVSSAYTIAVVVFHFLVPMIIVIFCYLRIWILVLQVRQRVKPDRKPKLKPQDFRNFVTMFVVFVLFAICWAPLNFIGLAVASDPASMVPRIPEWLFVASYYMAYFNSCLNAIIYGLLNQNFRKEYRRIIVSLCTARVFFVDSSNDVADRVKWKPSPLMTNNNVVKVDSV

On to `COc1ccc2cccc(C(CO)CNC(=O)CF)c2c1` (centres unmarked) [Example 1, 2-Fluoro-N-[3-hydroxy-2-(7-methoxy-1-naphthyl)propyl]acetamide], for which the Ki in experiment [1] is 0.5 nM; in experiment [2], 4.7 nM.
